Data published in US11612605B2, “(+)-azasetron for use in the treatment of ear disorders” (SENSORION, priority 2016, dated 2023).
Where two headings read alike, the source gives them in different places. Blank lines part the entries; values can stand above or below the compound they belong to.

Columns and labels:
[1] = Pharmacokinetics study: exposure in inner ear, perilymph and tail plasma after single oral dose; type: in vivo, Wistar rats; conditions: for AUC: po, 10 mg/kg, 10 mg/kg p.o., per-interval AUC of azasetron free-base
Description: The 72 male Wistar rats received on 28 Jan. 2016 from Janvier (Janvier, Le Genest-St-Isle) were assigned to the study. They were divided in 3 groups of 24 animals each, one group per test article. Each group was divided in […] subgroups according to the 6-termination time-points.
72 Wistar rats were subjected to oral single dose administration of the test article, racemic azasetron hydrochloride, azasetron hydrochloride (+) or azasetron hydrochloride (−), and sacrificed at different time-points to assess the exposure of the test article in the inner ear, perilymph, and plasma. • Group racemic azasetron: 24 male Wistar, 4 rats per time-point: 10 mg/kg azasetron HCl dissolved in NaCl 0.9%. Administrated as 5 mL/kg p.o.; • Group azasetron (+): 24 male Wistar, 4 rats per time-point: 10 mg/kg (+)-azasetron HCl dissolved in NaCl 0.9%. Administrated as 5 mL/kg p.o.; • Group azasetron (−): 24 male Wistar, 4 rats per time-point: 10 mg/kg (−)-azasetron HCl dissolved in NaCl 0.9%. Administrated as 5 mL/kg p.o.
There were 6 termination time-points for each test article. At time-points 15/30/60/120/240/480 minutes after administration: peripheral plasma from the tail was sampled. The animals were sacrificed by i.v. administration of 0.25 mL/rat of a 160 mg/mL pentobarbital solution. Following sacrifice, the heart blood and both tympanic bullas (left and right) were sampled.
Both tympanic bullas (left and right) were collected, however, only the left one was used for the perilymph and inner ear analysis. The right bulla was stored at −20° C. for future needs when required. For animal IDs 1 and 4, the right bulla was used for the sampling of perilymph and inner ear.
The left bulla was dissected fresh. Briefly, the bulla was opened via the auditory opening to reveal the bone surrounding the cochlea after which the tip of the bone was removed with forceps and a 10 μL pipette tip was inserted to withdraw perilymph.
Upon exposure of the tip of the cochlea, 2 μL of perilymph (fluid) could be recovered from the bulla. The perilymph was brought to 10 μL by the addition of 8 μL water, and then extract via the addition of 30 μL of acetonitrile. After that, the samples were centrifuged and the supernatant was transferred to a glass vial appropriate for the HPLC-MS auto-sampler.
Following recovering of the perilymph, the bones of the inner ear and cochlea components were removed with fine forceps and added to a tared Eppendorf tube. The collection was weighed and brought to 10 mg with the addition of water and placed on ice until extraction. 30 μL of acetonitrile was added and the tubes were incubated in an ultrasound bath, after which they were centrifuged and the supernatant was transferred to a glass vial appropriate for the HPLC-MS auto-sampler. In the process or removing the bones of the inner ear, they were finely distributed in the media and broken by forceps. (Due to the very low volume of the tissue and its fine structure, separate grinding is considered risky vs the potential losses to plastic and media. The materials are very fine in nature and the bone particles are small thus providing only short interfaces to media. The absence of fat and the incubation in solvent is intended to provide sufficient solubility of active ingredient).
The acetonitrile used in the sample preparation for bio-analysis contained the internal standard for the HPLC-MS analysis.
30 μL acetonitrile including the internal standard were added to each 10 μL plasma sample. After adding the acetonitrile, the samples were mixed by vortex and further centrifuged. The supernatant was transferred to a glass vial appropriate for the HPLC-MS auto-sampler.
The LC system comprised an Agilent 1260 liquid chromatography equipped with a binary pump and a column oven, together with a PAL HTS-xt auto-sampler. It is linked to the AB SCIEX TRIPLE QUADTM 4500 (triple-quadrupole) instrument with an ESI interface and a switching valve integrated (Mass spectrometric analysis). […]

[2] = tested on: unilateral vestibular dysfunction induced by intratympanic kainic injection; experiment: Kainate model of peripheral excitotoxic vestibular injury: spontaneous nystagmus and roll angle deviation; type: in vivo, female Long-Evans; conditions: 5.6 mg/kg intraperitoneal daily for 3 days
Experimental: The capacity of (+)-azasetron besylate to protect against lesions in the peripheral vestibular system was assessed using the kainate model of peripheral excitotoxic injury. Following unilateral, transtympanic injection of the excitotoxic kainic acid leading to the swelling, retraction and uncoupling of synapses between vestibular sensory hair cells and primary afferent neurons, baseline recordings of spontaneous nystagmus (pathological eye movements caused by a deficit of the vestibuloculomotor reflex) and postural deviations are performed before randomization to treatment groups. Recordings were repeated daily for 3 days, then again at D6 and D13 after lesion induction.
Following lesion induction and baseline recordings at t=1h, female Long-Evans were randomized to receive intraperitoneal injections of placebo (n=18) or 5.6 mg/kg (+)-azasetron besylate daily for 3 days (t=1/24/[…]). Recording of spontaneous nystagmus and postural deviations were repeated at 2/4/6/24/25/48/49 hours and D6/D13 after initial lesion induction (FIG. 9).

[3] = tested on: cochlear outer hair cells (OHC); experiment: Outer hair cell survival after cisplatin (cochleograms from whole-mount fixed cochleae); type: in vivo, female Wistar rats; conditions: 14 days of treatment after cisplatin
Experimental: Two days after baseline audiometry (ABR and DPOAE measurements), oral treatment was initiated in both groups 15 minutes before 8 mg/kg cisplatin infusion during 30 minutes under isoflurane anesthesia. On D14, ABR and DPOAE measurements were performed to evaluate ABR threshold shifts and DPOAE amplitude loss relative to baseline and the temporal bones of each animal were subsequently preserved with PFA fixation for histology (FIG. 5).
To evaluate the effect of (+) azasetron on outer hair cells (OHC) survival after cisplatin administration at an ototoxic dose, cochleograms of surviving OHCs were constructed from whole-mount fixed cochleae.

- Total AUC Inner ear ([1]; 10 mg/kg p.o. single dose): 27829 nM·min
- Total AUC Perilymph ([1]; 10 mg/kg p.o. single dose): 11901 nM·min
- Total AUC Tail plasma ([1]; 10 mg/kg p.o. single dose): 65448 nM·min
- concentration at 15 min ([1]; male, Wistar, rat, inner ear, oral, 10 mg/kg p.o. single dose, Time 15 (min), read-out: Average Inner ear concentration (ng azasetron free-base/g tissue)): 29 ng/g
- concentration at 30 min ([1]; male, Wistar, rat, inner ear, oral, 10 mg/kg p.o. single dose, Time 30 (min), read-out: Average Inner ear concentration (ng azasetron free-base/g tissue)): 27 ng/g
- concentration at 60 min ([1]; male, Wistar, rat, inner ear, oral, 10 mg/kg p.o. single dose, Time 60 (min), read-out: Average Inner ear concentration (ng azasetron free-base/g tissue)): 8 ng/g
- concentration at 120 min ([1]; male, Wistar, rat, inner ear, oral, 10 mg/kg p.o. single dose, Time 120 (min), read-out: Average Inner ear concentration (ng azasetron free-base/g tissue)): 46 ng/g
- concentration at 240 min ([1]; male, Wistar, rat, inner ear, oral, 10 mg/kg p.o. single dose, Time 240 (min), read-out: Average Inner ear concentration (ng azasetron free-base/g tissue)): 21 ng/g
- concentration at 480 min ([1]; male, Wistar, rat, inner ear, oral, 10 mg/kg p.o. single dose, Time 480 (min), read-out: Average Inner ear concentration (ng azasetron free-base/g tissue)): 3 ng/g
- AUC ([1]; male, Wistar, rat, inner ear, Time 15 (min), read-out: Inner ear AUC (converted)): 0.0102 µM·h
- AUC ([1]; male, Wistar, rat, inner ear, Time 30 (min), read-out: Inner ear AUC (converted)): 0.0198 µM·h
- AUC ([1]; male, Wistar, rat, inner ear, Time 60 (min), read-out: Inner ear AUC (converted)): 0.0247 µM·h
- AUC ([1]; male, Wistar, rat, inner ear, Time 120 (min), read-out: Inner ear AUC (converted)): 0.0772 µM·h
- AUC ([1]; male, Wistar, rat, inner ear, Time 240 (min), read-out: Inner ear AUC (converted)): 0.193 µM·h
- AUC ([1]; male, Wistar, rat, inner ear, Time 480 (min), read-out: Inner ear AUC (converted)): 0.139 µM·h
- AUC ([1]; male, Wistar, rat, perilymph, Time 15 (min), read-out: Perilymph AUC (converted)): 0.00507 µM·h
- AUC ([1]; male, Wistar, rat, perilymph, Time 30 (min), read-out: Perilymph AUC (converted)): 0.0102 µM·h
- AUC ([1]; male, Wistar, rat, perilymph, Time 60 (min), read-out: Perilymph AUC (converted)): 0.015 µM·h
- AUC ([1]; male, Wistar, rat, perilymph, Time 120 (min), read-out: Perilymph AUC (converted)): 0.0363 µM·h
- AUC ([1]; male, Wistar, rat, perilymph, Time 240 (min), read-out: Perilymph AUC (converted)): 0.0747 µM·h
- AUC ([1]; male, Wistar, rat, perilymph, Time 480 (min), read-out: Perilymph AUC (converted)): 0.0571 µM·h
- AUC ([1]; male, Wistar, rat, tail plasma, Time 15 (min), read-out: Tail plasma AUC (converted)): 0.0203 µM·h
- AUC ([1]; male, Wistar, rat, tail plasma, Time 30 (min), read-out: Tail plasma AUC (converted)): 0.034 µM·h
- AUC ([1]; male, Wistar, rat, tail plasma, Time 60 (min), read-out: Tail plasma AUC (converted)): 0.0515 µM·h
- AUC ([1]; male, Wistar, rat, tail plasma, Time 120 (min), read-out: Tail plasma AUC (converted)): 0.17 µM·h
- AUC ([1]; male, Wistar, rat, tail plasma, Time 240 (min), read-out: Tail plasma AUC (converted)): 0.416 µM·h
- AUC ([1]; male, Wistar, rat, tail plasma, Time 480 (min), read-out: Tail plasma AUC (converted)): 0.4 µM·h
SMILES: CN1C(=O)COc2c(C(=O)N[C@@H]3CN4CCC3CC4)cc(Cl)cc21 [(−)-azasetron]

SMILES: CN1C(=O)COc2c(C(=O)NC3CN4CCC3CC4)cc(Cl)cc21.O=S(=O)(O)c1ccccc1 (single isomer, unassigned; (+)) [(+)-azasetron besylate]
- improvement (reduction) of roll angle deviation (postural head tilt) versus placebo ([2]; p<0.001): 30-62%
- improvement of spontaneous nystagmus versus placebo ([2]; p=0.048): 6-48%
- conservation of OHCs in the basal turn of the cochlea versus placebo [3]: up to 11 fold
- number of surviving OHCs versus placebo ([3]; p<0.001): significantly higher
